{
  "source": "patent US20180118786A1",
  "about": "“NOVEL lNHIBITORS OF THE ENZYME ACTIVATED FACTOR XII (FXIIA)” (ECOLE POLYTECHNIQUE FEDERALE DE LAUSANNE (EPFL), priority 2015, published 2018)",
  "key": {"in vitro": {"assay": "in vitro", "details": "human, plasma", "method": "Peptide (2 μl of 2 mM in H2O) was added to 398 μl human plasma (final peptide concentration was 10 μM in 400 μl final volume). The mixture was incubated in the water bath at 37° C. At 8 different time points (0 h, 30 min, 1 h, 2 h, 4 h, 8 h, 12 h, 24 h and in some cases 48 h) a sample of 30 μl was removed, diluted to 200 μl with the same buffer used for protease inhibition assay (see above) and heat-inactivated for 20 min at 65° C. During this step proteases present in plasma are being inactivated, that would otherwise interfere with the subsequently performed enzymatic assay. […] Before analysis, plasma samples were centrifuged for 5 min at 16′000 g and the supernatant was collected. A twofold dilution series ranging from 0.0005-0.5 μM was prepared. IC50 values were derived from the fitted curve using the equation indicated above. Residual inhibition in % was calculated using the following formula: IC50, 0h/IC50, xh*100 wherein IC50, 0h is the functional strength of the inhibitor at time point 0 and IC50, xh the functional strength of inhibitor after one of the different plasma incubation period mentioned above.\nThe activity of the plasma proteases was heat-inactivated by incubation of the samples at 65° C. for 10 minutes."}, "human β-FXIIa [1]": {"molecular_target": "T1, human β-FXIIa (Homo sapiens, UniProt P00748)", "T1 construct": "human β-FXIIa, a naturally occurring proteolytic product of FXIIa comprising only the catalytic domain; purchased Molecular Innovations HFXIIAB", "T1 sequence (P00748 373-615 limits assumed, other chains not shown)": "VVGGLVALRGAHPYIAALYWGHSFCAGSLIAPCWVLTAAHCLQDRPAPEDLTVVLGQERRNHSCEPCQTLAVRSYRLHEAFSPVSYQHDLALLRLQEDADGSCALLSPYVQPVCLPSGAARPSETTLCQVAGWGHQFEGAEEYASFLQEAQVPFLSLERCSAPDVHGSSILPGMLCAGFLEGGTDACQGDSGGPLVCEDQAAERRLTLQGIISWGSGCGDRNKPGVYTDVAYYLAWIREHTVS", "assay": "Protease inhibition assay (Example 2)", "type": "biochemical", "details": "for improvement of inhibitory activity / affinity: relative to parent peptide 2", "method": "The inhibitory activity of bicyclic peptides was determined by incubation with proteases and quantification of their residual activity with a fluorogenic substrate. Residual enzymatic activities were measured in buffer containing 10 mM Tris-CI, pH 7.4, 150 mM NaCl, 10 mM MgCl2, 1 mM CaCl2, 0.1% w/v BSA, 0.01% v/v Triton-X100, and 5% v/v DMSO in a volume of 150 μL. In a first series of experiments 50 μM of the fluorogenic substrate Z-Gly-Gly-Arg-AMC and 2.5 nM of enzyme (human p-FXIIa, HFXIIAB; Molecular Innovations) was used.\nDilutions of peptides were prepared ranging from 0.00001-4 μM. Fluorescence intensity was measured with an Infinite M200Pro fluorescence plate reader (excitation at 368 nm, emission at 467 nm; Tecan, Männedorf, Switzerland). The reactions were performed at 25° C., Sigmoidal curves were fitted to the data using the following dose response equation wherein x=peptide concentration, y=% activity of reaction without peptide, A1=100%, A2=0%, p=1. IC50 values were derived from the fitted curve."}, "human β-FXIIa [2]": {"molecular_target": "T1, human β-FXIIa", "assay": "Protease inhibition assay (Example 3)", "type": "biochemical", "details": "for improvement of Ki / binding: relative to FXII618 (1)", "procedure": "The inhibitory activity of the synthesized bicyclic peptides was determined by incubation with the protease and quantification of the residual activity at various peptide concentrations using a fluorogenic substrate. A 2 mM (by weight) stock solution in H2O was made for each peptide. For the assay, serial dilutions were made from the peptide stock solution using aqueous buffer containing 10 mM TRIS, 150 mM NaCl, 10 mM MgCl (hexahydrate), 1 mM CaCl2 (dihydrate), 0.01% (v/v) Triton X-100, 0.1% (w/v) BSA and pH adjusted to 7.4. The final concentration of human 3-FXIIa (HFXIIAB; Molecular Innovations) was 1 nM or 0.5 nM. […] The final concentration of the fluorogenic substrate Boc-Q-G-R-AMC (Bachem) was 50 μM and the final DMSO content was 5%. The fluorescence was measured using an Infinite M200 Pro plate reader (Tecan) with filters 368 nm for excitation and 467 nm for emission. The measurement was performed for 60 min with a read every minute at 25° C. IC50 and Ki values were calculated using GraphPad Prism 5 software."}},
  "note": "Starred links: 1 amine or outer side, 2 acyl side, 3 side chain; linkers in the order of their positions; H or OH if unused. Positions of bridges follow the written chain, without caps; N, C: chain ends. Non-standard residues stand in square brackets, D forms with d. Residues, ends and D or L forms follow the SMILES beside them. TATA = O=C(CC[*:1])N1CN(C(=O)CC[*:2])CN(C(=O)CC[*:3])C1; Phe(4-F) = N[C@@H](Cc1ccc(F)cc1)C(=O)O; β3hR = N=C(N)NCCC[C@H](N)CC(=O)O",
  "data": [
    {"compound": "CC(C)C[C@@H]1NC(=O)[C@H](CCC(N)=O)NC(=O)[C@H](Cc2c[nH]cn2)NC(=O)[C@@H]2CSCCC(=O)N3CN(CN(C3)C(=O)CCSC[C@H](NC(=O)[C@@H](CO)NC(=O)[C@H](N)CCCNC(=N)N)C(=O)N[C@@H](Cc3ccc(F)cc3)C(=O)N[C@@H](CCCNC(=N)N)C(=O)N[C@@H](CC(C)C)C(=O)N3CCC[C@H]3C(=O)N2)C(=O)CCSC[C@@H](C(=O)N[C@@H](CCCNC(=N)N)C(N)=O)NC(=O)[C@H](CCCNC(=N)N)NC1=O", "note": "[JS34] (H-[dR][dS]C[Phe(4-F)]RLPCHQLRCR-NH2; linker 3-8-13 via TATA; N-terminus and C-terminus assumed)", "values": [
      {"measurement": "half-life at 10 μM", "setting": "in vitro", "result": 38.7, "unit": "h"}
    ]},
    {"compound": "CC(C)C[C@@H]1NC(=O)[C@H](CCC(N)=O)NC(=O)[C@H](CCCNC(=N)N)NC(=O)[C@@H]2CSCCC(=O)N3CN(CN(C3)C(=O)CCSC[C@H](NC(=O)[C@@H](N)CCCNC(=N)N)C(=O)N[C@@H](Cc3ccccc3F)C(=O)N[C@@H](CCCNC(=N)N)C(=O)N[C@@H](CC(C)C)C(=O)N3CCC[C@H]3C(=O)N2)C(=O)CCSC[C@@H](C(=O)N[C@@H](CCCNC(=N)N)C(=O)N[C@@H](Cc2c[nH]c3ccccc23)C(N)=O)NC(=O)[C@H](CCCNC(=N)N)NC1=O", "note": "[peptide 56]", "values": [
      {"measurement": "improvement of inhibitory activity / affinity", "setting": "human β-FXIIa [1]", "result": 2, "unit": "fold"}
    ]},
    {"compound": "CC(C)C[C@@H]1NC(=O)[C@H](CCC(N)=O)NC(=O)[C@H](CCCNC(=N)N)NC(=O)[C@@H]2CSCCC(=O)N3CN(CN(C3)C(=O)CCSC[C@H](NC(=O)[C@@H](N)CCCNC(=N)N)C(=O)N[C@@H](Cc3ccccc3)C(=O)N[C@@H](CCCNC(=N)N)C(=O)N[C@@H](CC(C)C)C(=O)N3CCC[C@H]3C(=O)N2)C(=O)CCSCC[C@@H](C(=O)N[C@@H](CCCNC(=N)N)C(N)=O)NC(=O)[C@H](CCCNC(=N)N)NC1=O", "note": "[peptide 105]", "values": [
      {"measurement": "improvement of Ki / binding", "setting": "human β-FXIIa [2]", "result": 1.3, "unit": "fold"}
    ]},
    {"compound": "CC(C)C[C@@H]1NC(=O)[C@H](CCC(N)=O)NC(=O)[C@H](CCCNC(=N)N)NC(=O)[C@@H]2CSCCC(=O)N3CN(CN(C3)C(=O)CCSC[C@H](N)C(=O)N[C@@H](Cc3ccccc3)C(=O)N[C@@H](CCCNC(=N)N)C(=O)N[C@@H](CC(C)C)C(=O)N3CCC[C@H]3C(=O)N2)C(=O)CCSC[C@@H](C(=O)N[C@@H](CCCNC(=N)N)C(N)=O)NC(=O)[C@H](CCCNC(=N)N)NC1=O", "note": "[peptide 62] (H-CFRLPCRQLRCR-NH2; linker 1-6-11 via TATA)", "values": [
      {"measurement": "Ki", "setting": "human β-FXIIa [1]", "result": "932 ± 80", "unit": "nM"}
    ]},
    {"compound": "Cc1cccc(C[C@@H]2NC(=O)[C@@H](NC(=O)[C@@H](N)CCCNC(=N)N)CSCCC(=O)N3CN4CN(C3)C(=O)CCSC[C@H](NC(=O)[C@@H]3CCCN3C(=O)[C@H](CC(C)C)NC(=O)[C@H](CCCNC(=N)N)NC2=O)C(=O)N[C@@H](CCCNC(=N)N)C(=O)N[C@@H](CCC(N)=O)C(=O)N[C@@H](CC(C)C)C(=O)N[C@@H](CCCNC(=N)N)C(=O)N[C@H](C(=O)N[C@@H](CCCNC(=N)N)C(=O)N[C@@H](Cc2c[nH]c3ccccc23)C(N)=O)CSCCC4=O)c1", "note": "[peptide 52]", "values": [
      {"measurement": "improvement of inhibitory activity / affinity", "setting": "human β-FXIIa [1]", "result": 2.5, "unit": "fold"}
    ]},
    {"compound": "CC(C)C[C@@H]1NC(=O)[C@H](CCC(N)=O)NC(=O)[C@H](CCCNC(=N)N)NC(=O)[C@@H]2CSCCC(=O)N3CN(CN(C3)C(=O)CCSC[C@H](NC(=O)[C@@H](N)CCCNC(=N)N)C(=O)N[C@@H](Cc3ccccc3)C(=O)N[C@@H](CCCNC(=N)N)C(=O)N[C@@H](CC(C)C)C(=O)N3CCC[C@H]3C(=O)N2)C(=O)CCSCC[C@@H](C(=O)N[C@@H](CCCNC(=N)N)C(N)=O)NC(=O)C[C@H](CCCNC(=N)N)NC1=O", "note": "[compound 107]", "values": [
      {"measurement": "Ki", "setting": "human β-FXIIa [2]", "result": "18 ± 2", "unit": "nM"}
    ]},
    {"compound": "CC(C)C[C@@H]1NC(=O)[C@H](CCC(N)=O)NC(=O)[C@H](CCCNC(=N)N)NC(=O)[C@@H]2CSCCC(=O)N3CN(CN(C3)C(=O)CCSC[C@H](NC(=O)[C@@H](N)CCNC(=N)N)C(=O)N[C@@H](Cc3ccccc3)C(=O)N[C@@H](CCCNC(=N)N)C(=O)N[C@@H](CC(C)C)C(=O)N3CCC[C@H]3C(=O)N2)C(=O)CCSC[C@@H](C(=O)N[C@@H](CCCNC(=N)N)C(N)=O)NC(=O)[C@H](CCCNC(=N)N)NC1=O", "note": "[peptide 71]", "values": [
      {"measurement": "Ki", "setting": "human β-FXIIa [1]", "result": "18.5 to 43.1", "unit": "nM"},
      {"measurement": "half-life at 10 μM", "setting": "in vitro", "result": "21.7 ± 2.5", "unit": "h"}
    ]},
    {"compound": "CC(C)C[C@@H]1NC(=O)[C@H](CCC(N)=O)NC(=O)[C@H](CCCNC(=N)N)NC(=O)[C@@H]2CSCCC(=O)N3CN(CN(C3)C(=O)CCSC[C@H](NC(=O)[C@@H](N)CCCNC(=N)N)C(=O)N[C@@H](Cc3ccccc3)C(=O)N[C@@H](CCCNC(=N)N)C(=O)N[C@@H](CC(C)C)C(=O)N3CCC[C@H]3C(=O)N2)C(=O)CCSC[C@@H](C(=O)N[C@@H](CCCNC(=N)N)C(N)=O)NC(=O)C[C@H](CCCNC(=N)N)NC1=O", "note": "[compound 100]", "values": [
      {"measurement": "Ki", "setting": "human β-FXIIa [2]", "result": "5.4 ± 0.1", "unit": "nM"},
      {"measurement": "improvement of Ki / binding", "setting": "human β-FXIIa [2]", "result": 4, "unit": "fold"}
    ]},
    {"compound": "CC(C)C[C@@H]1NC(=O)[C@H](CCC(N)=O)NC(=O)[C@H](Cc2c[nH]cn2)NC(=O)[C@@H]2CSCCC(=O)N3CN(CN(C3)C(=O)CCSC[C@H](NC(=O)[C@@H](CO)NC(=O)[C@H](N)CCCNC(=N)N)C(=O)N[C@@H](Cc3ccc(F)cc3)C(=O)N[C@@H](CCCNC(=N)N)C(=O)N[C@@H](CC(C)C)C(=O)N3CCC[C@H]3C(=O)N2)C(=O)CCSC[C@@H](C(=O)N[C@@H](CCCNC(=N)N)C(N)=O)NC(=O)C[C@H](CCCNC(=N)N)NC1=O", "note": "[JS33] (H-[dR][dS]C[Phe(4-F)]RLPCHQL[β3hR]CR-NH2; linker 3-8-13 via TATA; N-terminus and C-terminus assumed)", "values": [
      {"measurement": "half-life at 10 μM", "setting": "in vitro", "result": "144 ± 30", "unit": "h"}
    ]},
    {"compound": "CC(C)C[C@@H]1NC(=O)[C@H](CCC(N)=O)NC(=O)[C@H](CCCNC(=N)N)NC(=O)[C@@H]2CSCCC(=O)N3CN(CN(C3)C(=O)CCSC[C@H](NC(=O)[C@@H](N)CCCNC(=N)N)C(=O)N[C@@H](Cc3cccnc3)C(=O)N[C@@H](CCCNC(=N)N)C(=O)N[C@@H](CC(C)C)C(=O)N3CCC[C@H]3C(=O)N2)C(=O)CCSC[C@@H](C(=O)N[C@@H](CCCNC(=N)N)C(=O)N[C@@H](Cc2c[nH]c3ccccc23)C(N)=O)NC(=O)[C@H](CCCNC(=N)N)NC1=O", "note": "[peptide 54]", "values": [
      {"measurement": "improvement of inhibitory activity / affinity", "setting": "human β-FXIIa [1]", "result": "around 3 fold"}
    ]},
    {"compound": "CC(C)C[C@@H]1NC(=O)[C@H](CCC(N)=O)NC(=O)[C@H](CCCNC(=N)N)NC(=O)[C@@H]2CSCCC(=O)N3CN(CN(C3)C(=O)CCSC[C@H](NC(=O)[C@@H](N)CCCNC(=N)N)C(=O)N[C@@H](Cc3ccccc3)C(=O)N[C@@H](CCCCN)C(=O)N[C@@H](CC(C)C)C(=O)N3CCC[C@H]3C(=O)N2)C(=O)CCSC[C@@H](C(=O)N[C@@H](CCCNC(=N)N)C(=O)N[C@@H](Cc2c[nH]c3ccccc23)C(N)=O)NC(=O)[C@H](CCCNC(=N)N)NC1=O", "note": "[peptide 10] (H-RCFKLPCRQLRCRW-NH2; linker 2-7-12 via TATA)", "values": [
      {"measurement": "reduction of inhibitory activity / affinity", "setting": "human β-FXIIa [1]; relative to parent peptide (peptide 2 or peptide 1)", "result": 10, "unit": "fold"}
    ]},
    {"compound": "CC(C)C[C@@H]1NC(=O)[C@H](CCC(N)=O)NC(=O)[C@H](CCCNC(=N)N)NC(=O)[C@@H]2CSCCC(=O)N3CN(CN(C3)C(=O)CCSC[C@H](NC(=O)[C@@H](CO)NC(=O)[C@H](N)CCCNC(=N)N)C(=O)N[C@@H](Cc3ccc(F)cc3)C(=O)N[C@@H](CCCNC(=N)N)C(=O)N[C@@H](CC(C)C)C(=O)N3CCC[C@H]3C(=O)N2)C(=O)CCSC[C@@H](C(=O)N[C@@H](CCCNC(=N)N)C(N)=O)NC(=O)C[C@H](CCCNC(=N)N)NC1=O", "note": "[JS35] (H-[dR][dS]C[Phe(4-F)]RLPCRQL[β3hR]CR-NH2; linker 3-8-13 via TATA; N-terminus and C-terminus assumed)", "values": [
      {"measurement": "half-life at 10 μM", "setting": "in vitro", "result": 21.9, "unit": "h"}
    ]}
  ]
}
